# Reference: PubChem BioAssay AID1745844 (Carcinogenic Potency Database (CPDB), 2022)
# The source made the active and inactive calls. No rule for the calls is given here.
# System: rodent lifetime carcinogenesis bioassay, tumor incidence TD50
# Assay: carcinogenic potency in animals, long-term in vivo studies, CPDB compilation (AID 1745844)
smiles,measurement,setting,value
CCOc1ccc(NC(C)=O)cc1,TD50,"mouse, strain B6C3F1, females, in feed, site: liver, lesion: hemangioma, dosed 96 weeks, study length 104 weeks",29200 mg/kg/day (inactive)
same,TD50,"mouse, strain B6C3F1, females, in feed, site: liver, lesion: hepatocellular carcinoma, dosed 96 weeks, study length 104 weeks",47700 mg/kg/day (inactive)
same,TD50,"mouse, strain B6C3F1, females, in feed, site: liver, lesion: hyperplastic nodule, dosed 96 weeks, study length 104 weeks",14000 mg/kg/day (inactive)
same,TD50,"mouse, strain B6C3F1, females, in feed, site: lung, lesion: adenocarcinoma, dosed 96 weeks, study length 104 weeks",8830 mg/kg/day (inactive)
same,TD50,"mouse, strain B6C3F1, females, in feed, site: lung, lesion: adenoma, dosed 96 weeks, study length 104 weeks",6890 mg/kg/day (inactive)
same,TD50,"mouse, strain B6C3F1, females, in feed, site: urinary bladder, lesion: papilloma, dosed 96 weeks, study length 104 weeks",37000 mg/kg/day
same,TD50,"mouse, strain B6C3F1, females, in feed, site: urinary bladder, lesion: transitional-cell carcinoma, dosed 96 weeks, study length 104 weeks",37000 mg/kg/day
same,TD50,"mouse, strain B6C3F1, males, in feed, site: kidney, lesion: renal-cell adenoma, dosed 96 weeks, study length 104 weeks",1100 mg/kg/day
same,TD50,"mouse, strain B6C3F1, males, in feed, site: kidney, lesion: renal-cell carcinoma, dosed 96 weeks, study length 104 weeks",4020 mg/kg/day
same,carcinogen call,"mouse, strain B6C3F1, males, in feed, site: liver, lesion: hemangioma, dosed 96 weeks, study length 104 weeks",negative (inactive)
same,TD50,"mouse, strain B6C3F1, males, in feed, site: liver, lesion: hepatocellular carcinoma, dosed 96 weeks, study length 104 weeks",17100 mg/kg/day (inactive)
same,carcinogen call,"mouse, strain B6C3F1, males, in feed, site: liver, lesion: hyperplastic nodule, dosed 96 weeks, study length 104 weeks",negative (inactive)
same,TD50,"mouse, strain B6C3F1, males, in feed, site: lung, lesion: adenocarcinoma, dosed 96 weeks, study length 104 weeks",3800 mg/kg/day (inactive)
same,TD50,"mouse, strain B6C3F1, males, in feed, site: lung, lesion: adenoma, dosed 96 weeks, study length 104 weeks",5280 mg/kg/day (inactive)
same,carcinogen call,"mouse, strain C57BL/6, females, in feed, site: liver, lesion: one or several types, types not named, dosed 77 weeks, study length 77 weeks",negative (inactive)
same,TD50,"mouse, strain C57BL/6, males, in feed, site: liver, lesion: hyperplastic nodule, dosed 77 weeks, study length 77 weeks",12900 mg/kg/day (inactive)
same,TD50,"rat, strain Sprague-Dawley, females, in feed, site: all sites, lesion: myeloid leukemia, dosed 78 weeks, study length 104 weeks",2560 mg/kg/day (inactive)
same,TD50,"rat, strain Sprague-Dawley, females, in feed, site: any site (literature study), lesion: several types, types named in the paper, dosed 78 weeks, study length 104 weeks",1210 mg/kg/day
same,TD50,"rat, strain Sprague-Dawley, females, in feed, site: ear duct, lesion: squamous-cell carcinoma, dosed 110 weeks, study length 110 weeks",1430 mg/kg/day
same,TD50,"rat, strain Sprague-Dawley, females, in feed, site: mammary gland, lesion: adenocarcinoma, dosed 110 weeks, study length 110 weeks",1380 mg/kg/day
same,TD50,"rat, strain Sprague-Dawley, females, in feed, site: nasal cavity, lesion: adenocarcinoma, dosed 78 weeks, study length 104 weeks",7730 mg/kg/day
same,TD50,"rat, strain Sprague-Dawley, females, in feed, site: nasal cavity, lesion: squamous-cell carcinoma, dosed 78 weeks, study length 104 weeks",48000 mg/kg/day
same,TD50,"rat, strain Sprague-Dawley, females, in feed, site: nasal cavity, lesion: transitional-cell carcinoma, dosed 78 weeks, study length 104 weeks",23800 mg/kg/day
same,TD50,"rat, strain Sprague-Dawley, females, in feed, site: several sites, sites named in the paper, lesion: several types, types named in the paper, dosed 78 weeks, study length 104 weeks",2730 mg/kg/day
same,TD50,"rat, strain Sprague-Dawley, females, in feed, site: urinary bladder, lesion: papilloma, dosed 78 weeks, study length 104 weeks",23800 mg/kg/day
same,TD50,"rat, strain Sprague-Dawley, females, in feed, site: urinary bladder, lesion: transitional-cell carcinoma, dosed 78 weeks, study length 104 weeks",11700 mg/kg/day
same,TD50,"rat, strain Sprague-Dawley, males, in feed, site: all sites, lesion: myeloid leukemia, dosed 78 weeks, study length 104 weeks",2380 mg/kg/day (inactive)
same,TD50,"rat, strain Sprague-Dawley, males, in feed, site: any site (literature study), lesion: several types, types named in the paper, dosed 78 weeks, study length 104 weeks",631 mg/kg/day
same,TD50,"rat, strain Sprague-Dawley, males, in feed, site: forestomach, lesion: squamous-cell papilloma, dosed 117 weeks, study length 117 weeks",2690 mg/kg/day
same,TD50,"rat, strain Sprague-Dawley, males, in feed, site: kidney cortex, lesion: renal-cell tumor, dosed 117 weeks, study length 117 weeks",1300 mg/kg/day
same,TD50,"rat, strain Sprague-Dawley, males, in feed, site: kidney/pelvis, lesion: one or several types, types not named, dosed 117 weeks, study length 117 weeks",5470 mg/kg/day
same,TD50,"rat, strain Sprague-Dawley, males, in feed, site: kidney/pelvis, lesion: renal-cell carcinoma, dosed 78 weeks, study length 104 weeks",38300 mg/kg/day
same,TD50,"rat, strain Sprague-Dawley, males, in feed, site: liver, lesion: hemangioma, dosed 117 weeks, study length 117 weeks",5470 mg/kg/day
same,TD50,"rat, strain Sprague-Dawley, males, in feed, site: nasal cavity, lesion: adenocarcinoma, dosed 78 weeks, study length 104 weeks",2380 mg/kg/day
same,TD50,"rat, strain Sprague-Dawley, males, in feed, site: nasal cavity, lesion: squamous-cell carcinoma, dosed 78 weeks, study length 104 weeks",7530 mg/kg/day
same,TD50,"rat, strain Sprague-Dawley, males, in feed, site: nasal cavity, lesion: transitional-cell carcinoma, dosed 78 weeks, study length 104 weeks",4050 mg/kg/day
same,TD50,"rat, strain Sprague-Dawley, males, in feed, site: several sites, sites named in the paper, lesion: several types, types named in the paper, dosed 78 weeks, study length 104 weeks",741 mg/kg/day
same,TD50,"rat, strain Sprague-Dawley, males, in feed, site: urinary bladder, lesion: one or several types, types not named, dosed 117 weeks, study length 117 weeks",1640 mg/kg/day
same,TD50,"rat, strain Sprague-Dawley, males, in feed, site: urinary bladder, lesion: transitional-cell carcinoma, dosed 78 weeks, study length 104 weeks",2710 mg/kg/day
same,carcinogen call,"rat, strain Wistar, females, in feed, site: urinary tract, lesion: one or several types, types not named, dosed 69 weeks, study length 69 weeks",negative (inactive)
CC(=O)N(C(C)=O)c1cccc2c1Cc1ccccc1-2,TD50,"rat, strain Buffalo, females, in feed, site: ear duct, lesion: squamous-cell carcinoma, dosed 53 weeks, study length 93 weeks",61.2 mg/kg/day
same,TD50,"rat, strain Buffalo, females, in feed, site: liver, lesion: hemangioma, dosed 53 weeks, study length 93 weeks",61.2 mg/kg/day
same,TD50,"rat, strain Buffalo, females, in feed, site: mammary gland, lesion: adenocarcinoma, dosed 53 weeks, study length 93 weeks",19 mg/kg/day
same,TD50,"rat, strain Buffalo, females, in feed, site: pituitary gland, lesion: adenoma, dosed 53 weeks, study length 93 weeks",8.63 mg/kg/day
N,carcinogen call,"mouse, strain C3H (MTV+), females, in drinking water, site: mammary gland, lesion: adenocarcinoma, dosed 104 weeks, study length 104 weeks",negative (inactive)
same,carcinogen call,"mouse, strain Swiss, females, in drinking water, site: lung, lesion: several types, types named in the paper, dosed 119 weeks, study length 121 weeks",negative (inactive)
same,TD50,"mouse, strain Swiss, males, in drinking water, site: liver, lesion: several types, types named in the paper, dosed 120 weeks, study length 124 weeks",26700 mg/kg/day
same,TD50,"mouse, strain Swiss, males, in drinking water, site: lung, lesion: adenocarcinoma, dosed 120 weeks, study length 124 weeks",7330 mg/kg/day (inactive)
same,TD50,"mouse, strain Swiss, males, in drinking water, site: lung, lesion: several types, types named in the paper, dosed 120 weeks, study length 124 weeks",15300 mg/kg/day (inactive)
CC(C)(C)NCC(O)c1ccc(O)c(CO)c1 (stereo not given),TD50,"rat, strain Charles River CD (Sprague-Dawley), females, in feed, site: mesovarium, lesion: leiomyoma, dosed 80 weeks, study length 80 weeks",36.3 mg/kg/day
same,TD50,"rat, strain Charles River CD (Sprague-Dawley), females, in feed, site: mesovarium, lesion: leiomyoma, dosed 104 weeks, study length 104 weeks",44.6 mg/kg/day
CCCCN(N)C=O,TD50,"mouse, strain Swiss albino, females, in drinking water, site: clitoral gland, lesion: several types, types named in the paper, dosed 92 weeks, study length 92 weeks",252 mg/kg/day
same,TD50,"mouse, strain Swiss albino, females, in drinking water, site: clitoral gland, lesion: squamous-cell carcinoma, dosed 92 weeks, study length 92 weeks",321 mg/kg/day
same,TD50,"mouse, strain Swiss albino, females, in drinking water, site: lung, lesion: several types, types named in the paper, dosed 92 weeks, study length 92 weeks",19.4 mg/kg/day
same,carcinogen call,"mouse, strain Swiss albino, males, in drinking water, site: liver, lesion: angioma, dosed 90 weeks, study length 90 weeks",negative (inactive)
same,TD50,"mouse, strain Swiss albino, males, in drinking water, site: lung, lesion: several types, types named in the paper, dosed 90 weeks, study length 90 weeks",19.2 mg/kg/day
same,TD50,"mouse, strain Swiss albino, males, in drinking water, site: preputial gland, lesion: angiosarcoma, dosed 90 weeks, study length 90 weeks",519 mg/kg/day
same,TD50,"mouse, strain Swiss albino, males, in drinking water, site: preputial gland, lesion: fibrosarcoma, dosed 90 weeks, study length 90 weeks",304 mg/kg/day
same,TD50,"mouse, strain Swiss albino, males, in drinking water, site: preputial gland, lesion: several types, types named in the paper, dosed 90 weeks, study length 90 weeks",28.2 mg/kg/day
same,TD50,"mouse, strain Swiss albino, males, in drinking water, site: preputial gland, lesion: squamous-cell carcinoma, dosed 90 weeks, study length 90 weeks",35.6 mg/kg/day
C[C@]12C=CC(=O)C=C1CC[C@@H]1[C@@H]2[C@@H](O)C[C@@]2(C)[C@H]1CC[C@]2(O)C(=O)CO,TD50,"rat, strain Charles River CD (Sprague-Dawley), males, in drinking water, site: liver, lesion: hepatocellular adenoma, dosed 104 weeks, study length 104 weeks",2.16 mg/kg/day
same,TD50,"rat, strain Charles River CD (Sprague-Dawley), males, in drinking water, site: liver, lesion: hepatocellular carcinoma, dosed 104 weeks, study length 104 weeks",6.58 mg/kg/day
same,TD50,"rat, strain Charles River CD (Sprague-Dawley), males, in drinking water, site: liver, lesion: several types, types named in the paper, dosed 104 weeks, study length 104 weeks",1.53 mg/kg/day
same,TD50,"rat, strain Sprague-Dawley, females, by gavage, site: any site (literature study), lesion: benign tumor, dosed 78 weeks, study length 104 weeks",1.96 mg/kg/day (inactive)
same,carcinogen call,"rat, strain Sprague-Dawley, females, by gavage, site: any site (literature study), lesion: malignant tumor, dosed 78 weeks, study length 104 weeks",negative (inactive)
O=c1cc(CO)occ1O,TD50,"mouse, strain B6C3F1, females, in feed, site: liver, lesion: hepatocellular adenoma, dosed 84 weeks, study length 88 weeks",20900 mg/kg/day
same,TD50,"mouse, strain B6C3F1, females, in feed, site: thyroid gland, lesion: follicular-cell adenoma, dosed 84 weeks, study length 88 weeks",2610 mg/kg/day
same,TD50,"mouse, strain B6C3F1, males, in feed, site: liver, lesion: hepatocellular adenoma, dosed 84 weeks, study length 88 weeks",19700 mg/kg/day
same,TD50,"mouse, strain B6C3F1, males, in feed, site: thyroid gland, lesion: follicular-cell adenoma, dosed 52 weeks, study length 52 weeks",323 mg/kg/day
same,TD50,"mouse, strain B6C3F1, males, in feed, site: thyroid gland, lesion: follicular-cell adenoma, dosed 84 weeks, study length 88 weeks",927 mg/kg/day
